# pIC50: −log10 of the molar value. Read-outs that look alike come from different tables or passages of the source.
# Key:
# [1] = test system: Plasmodium falciparum W2 clone (Indochina, chloroquine-resistant); test: In vitro antimalarial assay, chloroquine-resistant W2 clone; assay type: cell-based; details: for X more potent than chloroquine: molar IC50 ratio versus chloroquine
# Protocol: (§1) The compounds were assayed for in vitro antimalarial activity against the W2 clone and D6 clone of the pathogenic Plasmodium falciparum. The strains of P. falciparum were obtained from the Division of Experimental Therapeutics, Walter Reed Army Institute of Research, Washington D.C. Strains of Sierra Leon D6 and Indochina W2 are chloroquine-sensitive and chloroquine-resistant, respectively. The parasite was grown in type A human RBCs and, two strains subcultured daily with fresh medium and blood cells. On the day of the assay, a suspension of infected blood cells (2% parasitemia and 2% hematocrit) was prepared using type A human red blood cells. Assays were performed by standard 96-well flat-bottomed microplate methods and done in duplicate at different concentrations. IC50 values were obtained from the dose curves. Artemisinin and chloroquine were included in each assay as the drug controls, and DMSO was used as vehicle control. The whole protocol was developed based on the published method of Makler. The cytotoxicity assays were also performed in parallel against the Vero cells, and the selectivity index was measured. A selectivity index of >9 was considered to indicate a lead for further development of antimalarial drug.
# [2] = test system: Plasmodium falciparum D6 clone (Sierra Leon, chloroquine-sensitive); test: In vitro antimalarial assay, chloroquine-sensitive D6 clone; assay type: cell-based; details: for X more potent than chloroquine: molar IC50 ratio versus chloroquine
# Protocol: as §1
# [3] = test system: Cryptococcus neoformans ATCC 90113; test: Antimicrobial microdilution assay against Cryptococcus neoformans (modified CLSI/NCCLS, optical density); assay type: cell-based; details: for X more potent than Amphotericin B: C. neoformans, ratio of molar IC50 to Amphotericin B; for C. neoformans IC50 / pIC50: in vitro, C. neoformans ATCC 90113; for pIC50: read-out: C. neoformans IC50 (mol/L)
# Procedure, shortened: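 Fungicidal endpoint taken by subculturing 5 μL from each clear well onto agar, MFC being the lowest concentration with no regrowth. Duplicate wells of serially diluted compound (20% DMSO/saline) in RPMI pH 6.0, read at 630 nm pre- and post-incubation, under modified CLSI methods. IC50 means 50% growth inhibition against controls.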
# [4] = test system: L. donovani promastigotes; test: Antileishmanial Alamar Blue assay on promastigotes; assay type: cell-based, Leishmania donovani; details: for X more potent than Pentamidine: L. donovani, ratio of molar IC50 to Pentamidine; for L. donovani IC50 / pIC50: promastigotes, 48 hours, Alamar Blue; for pIC50: read-out: L. donavani IC50
# Protocol: Methods: The compounds were screened in vitro against the promastigote forms of the leishmania parasites employing the Alamar Blue assay as discussed below.
# Antileishmanial activity of the compounds was tested in vitro against a culture of L. donovani promastigotes, grown in RPMI 1640 medium supplemented with 10% fetal calf serum (FCS, Gibco Chem. Co., Grand Island, NY) at 26° C. A 3-day-old culture was diluted to 5×10^5 promastigotes/mL. Drug dilutions (50-3.1 μg/mL) were prepared directly in cell suspension in 96-well plates. Plates were incubated at 26° C. for 48 hours, and growth of leishmania promastigotes was determined by Alamar Blue assay. Standard fluorescence was measured on a FLUOstar® Galaxy plate reader (BMG Lab Technologies, Ortenberg, Germany) at an excitation wavelength of 544 nm and emission wavelength of 590 nm. Pentamidine and amphotericin B were used as the standard antileishmanial agents. Percent growth was calculated and plotted versus test concentration for computing the IC50 values.
# [5] = W2 clone, converted with molecular weight, read-out: P. falciparum W2 IC50
# [6] = D6 clone, converted with molecular weight, read-out: P. falciparum D6 IC50
Molecule,P. falciparum W2 IC50 ([1]; W2 clone) [µg/mL],"pIC50 [1, 5]",X more potent than chloroquine ([1]; W2 clone),P. falciparum D6 IC50 ([2]; D6 clone) [µg/mL],"pIC50 [2, 6]",X more potent than chloroquine ([2]; D6 clone),X more potent than Amphotericin B [3],C. neoformans IC50 [3] [µg/mL],pIC50 [3],X more potent than Pentamidine [4],L. donovani IC50 [4] [µg/mL],pIC50 [4],"pIC50 ([1]; Plasmodium falciparum, W2, read-out: P. falciparum W2 IC50 (mol/L))","IC50 ([1]; Plasmodium falciparum, W2, read-out: P. falciparum W2 IC50 (μg/mL)) [µg/mL]","pIC50 ([2]; Plasmodium falciparum, D6, read-out: P. falciparum D6 IC50 (mol/L))","IC50 ([2]; Plasmodium falciparum, D6, read-out: P. falciparum D6 IC50 (μg/mL)) [µg/mL]",times more potent than chloroquine ([1]; chloroquine-resistant P. falciparum (W2 strain))
"CC(=O)[O-].F[P-](F)(F)(F)(F)F.O.[Ni+2].c1ccc(CN2CCCNCCN(Cc3ccccc3)CCCNCC2)cc1 [BME06, [Ni(Bn2Cyclam)(OAc)]PF6•H2O]",1.7132,5.59,0.26,0.7495,5.95,0.03,0.01,17.990,4.57,0.13,26.25,4.40,–,–,–,–,–
CCN(CC)CCCC(C)Nc1ccnc2cc(Cl)ccc12 (stereo not shown) [CQ],–,–,1.00,–,–,1.00,–,–,–,–,–,–,6.17,0.217,7.44,0.0117,–
Clc1ccc2c(N3CCCNCCCNCCNCCC3)ccnc2c1 [K-JDD-0011-P36],0.5279,5.85,0.48,0.0203,7.27,0.68,–,–,–,–,–,–,–,–,–,–,–
Clc1ccc2c(N3CCNCCN(c4ccnc5cc(Cl)ccc45)CCNCC3)ccnc2c1.[Cl-].[Cl-].[Mn+2] [K-PAA2-0004-P8],0.0875,6.85,4.82,0.0750,6.92,0.30,–,–,–,–,–,–,–,–,–,–,–
CN1CCN(c2ccnc3cc(Cl)ccc23)CCN(C)CCN(c2ccnc3cc(Cl)ccc23)CC1 [K-PAA-0012-P28],0.1992,6.42,1.78,0.1169,6.65,0.16,–,–,–,–,–,–,–,–,–,–,–
"Clc1ccc2c(N3CCNCCN(c4ccnc5cc(Cl)ccc45)CCNCC3)ccnc2c1.O.O.[Fe+3].[O-][Cl+3]([O-])([O-])[O-].[O-][Cl+3]([O-])([O-])[O-].[O-][Cl+3]([O-])([O-])[O-] [K-PAA-0016-P36, Fe-complex-4,10-bis(7-chloroquinoline)cyclen)Cl2]",0.0336,7.42,17.88,0.0196,7.66,1.65,0.22,0.940,5.97,–,–,–,–,–,–,–,~18
m-CB-homocyclens HCl salt [OB65B],0.3783,6.42,1.78,0.2921,6.53,0.12,1.47,0.160,6.79,0.48,11.08,4.95,–,–,–,–,–

# From patent US12139481B2, “Compositions comprising macrocycle derivatives incorporating bridged macrocycles and methods of producing and using same” (Southwestern Oklahoma State University, priority 2015, dated 2024)
